# In publication PMC10470053, “Diverse p120RasGAP interactions with doubly phosphorylated partners EphB4, p190RhoGAP, and Dok1” (The Journal of Biological Chemistry, 2023):
# “And” between values parts separate entries of the source, which are not always exact repeats. Equal entries are not always repeated. Where two headings read alike, the source gives them in different places. Square brackets hold non-standard residues; d marks the D form. Peptide text beside a SMILES is read from it. pY = N[C@@H](Cc1ccc(OP(=O)(O)O)cc1)C(=O)O
# Legend:
# [1] = biological target: T1, RasGAP^232(mut) (R398E/K400E, C-SH2 mutant) (Homo sapiens, UniProt P20936, C236S/C261S/C372S/C402S/K400E/R398E); assay: Isothermal titration calorimetry, C-SH2 mutant RasGAP^232(mut); type: binding
# T1 construct: (residues 174–444, termed RasGAP^232); hexahistidine (TEV-cleavable) (N, cleaved yes); made in house; host or cells: E. coli Rosetta (DE3)
# T1 sequence (P20936 174-444 C236S/C261S/C372S/R398E/K400E/C402S): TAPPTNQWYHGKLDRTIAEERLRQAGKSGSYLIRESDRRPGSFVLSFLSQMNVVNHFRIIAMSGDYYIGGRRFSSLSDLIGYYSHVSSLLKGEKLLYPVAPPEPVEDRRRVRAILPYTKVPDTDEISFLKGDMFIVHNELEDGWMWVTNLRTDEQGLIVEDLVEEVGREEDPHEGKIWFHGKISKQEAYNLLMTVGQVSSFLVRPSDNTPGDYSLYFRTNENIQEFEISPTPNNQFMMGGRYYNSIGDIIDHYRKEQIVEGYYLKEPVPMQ
# Experimental: One possibility for the difference in binding affinity of EphB4 compared to the other dually phosphorylated peptides is that only a single SH2 domain engages EphB4 at any time. This is supported by the observation that the Kd of binding, 2 μM, is similar to other reported individual SH2 phosphotyrosine interactions (for examples see ([60])) and the evidence of only one inflection point in the doubly phosphorylated EphB4–binding isotherm (Figs. 2B and S3). To assess this hypothesis, we generated two RasGAP^232 mutants that disrupt the phosphotyrosine-binding sites of either the N- or C-SH2 domains and conducted further ITC experiments. […] For the ‘FLVR-unique” C-terminal SH2, we introduced a double mutation R398E/K400E, to abrogate phosphotyrosine binding guided by our previous work ([52]), termed RasGAP^232(mut) (Fig. 2D). We additionally generated a double mutant of both SH2 domains, RasGAP^2(mut)32(mut), and purified each of these proteins (Fig. S2, B–D). […] We then assessed phosphopeptide binding of the single mutant SH2 domains. […] This is similar to the Kd of 2 ± 0.7 μM observed for titration of this peptide into WT RasGAP^232.
# To attempt to parse the specificity of RasGAP for the more N- or C-terminal EphB juxtamembrane phosphotyrosines pY590 and pY596, we assessed the affinity of RasGAP^232(mut) for shorter synthesized EphB4 peptides corresponding to either of the two phosphotyrosines (Fig. 1C). […] Alternatively, the C-terminal SH2 may contribute to a second weaker interaction in a tandem interaction. […] This low-affinity interaction represents a primarily single N-SH2-dominant interaction.
# Purified RasGAP^232 protein and solubilized peptides were dialyzed overnight against buffer containing 20 mM Tris pH 8, 250 mM NaCl in Slide-A-Lyzer 3 ml 10 kDa molecular weight cut off cassettes (Spectra-Por) and Micro Float-A-Lyzer 0.1 to 0.2 ml, 0.1 to […] molecular weight cut off devices (Spectra-Por), respectively. Protein and peptide concentrations were determined by A280 measured on a Nanodrop Lite (Thermo Fisher Scientific) instrument using extinction coefficients of 45,840 M^−1 cm^−1 for RasGAP^232 (and mutants), 917 M^−1 cm^−1 for the doubly phosphorylated EphB4 peptide, and 458.5 M^−1 cm^−1 for the singly phosphorylated EphB4 peptides as determined by ([74]). Dok1 peptide concentration was confirmed using Amino Acid Analysis performed at UC Davis Molecular Structure Facility. Samples were centrifuged for 10 min at 4 °C and degassed for 7 min using a Degassing Station (TA Instruments). ITC experiments were performed on a Nano ITC (TA Instruments) by loading protein into the 190 μl sample cell and titrating 20 times with 2.5 μl peptide in the titration syringe. Concentrations for sample cell and syringe for each trial are included in Table S1. The data were analyzed in NanoAnalyze software (TA Instrument) using blank (constant) and independent models (https://www.tainstruments.com/itcrun-dscrun-nanoanalyze-software/).
# [2] = Reconstitution of lyophilized peptides in water; type: physicochemical; details: lyophilized peptide reconstituted in water; spiked with 20 mM Tris pH 8 or 10 mM NaOH to increase solubility
# Description: Synthetic peptides were purchased from GenScript and contain N-terminal acetylation and C-terminal amidation for stability. The doubly phosphorylated EphB4 peptide (UniProt ID P54760) used in ITC and SAXS experiments contains residues 586 to 602 (GTKV[pTyr]IDPFT[pTyr]EDPNEA). The singly phosphorylated EphB4 peptides pY590 and pY596 used in ITC experiments contain the residues 586 to 595 (GTKV[pTyr]IDPFT) and residues 592 to 602 (DPFT[pTyr]EDPNE), respectively. The p190RhoGAP peptide (UniProt ID Q9NRY4) used in SAXS experiments contains the residues 1083 to 1111 (SD[pTyr]AEPMDAVVKPRNEEENI[pTyr]SVPH). The Dok1 peptide (UniProt ID Q99704) used in ITC and SAXS experiments contains the residues 291 to 322 (SPPAL[pTyr]AEPLDSLRIAPCPSQDSL[pTyr]SDPLDST). Lyophilized peptides were reconstituted in water, and less soluble peptides (pYpYEphB4 and pY590) were spiked with 20 mM Tris pH 8 or 10 mM NaOH to increase solubility. Concentrations of stock peptides are as follows: pYpY190 stock concentration is 10 mM; pYpYEphB4 stock concentration is 2.5 mM; Dok1 stock concentration is 5.5 mM; pY596 stock concentration is 10 mM; and pY590 stock concentration is 8 mM.
# [3] = biological target: p190RhoGAP-A doubly phosphorylated peptide (Homo sapiens) (UniProt Q9NRY4); assay: ITC; details: cited from earlier work
# Sequence of p190RhoGAP-A doubly phosphorylated peptide (Homo sapiens) (Q9NRY4 1083-1111): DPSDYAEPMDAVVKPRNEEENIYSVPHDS
# [4] = ITC, average of trials (Table S1)
# Sequence of p120RasGAP SH2-SH3-SH2 (P20936 174-444): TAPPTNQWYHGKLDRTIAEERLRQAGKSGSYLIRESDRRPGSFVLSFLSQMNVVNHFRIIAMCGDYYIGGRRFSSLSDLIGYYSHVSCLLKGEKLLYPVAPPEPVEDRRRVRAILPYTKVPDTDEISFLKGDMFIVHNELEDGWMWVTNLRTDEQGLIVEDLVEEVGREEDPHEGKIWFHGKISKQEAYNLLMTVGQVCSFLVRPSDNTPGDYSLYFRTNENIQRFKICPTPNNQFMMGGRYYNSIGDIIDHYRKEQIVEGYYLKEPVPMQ
Compound,"weaker binding than the doubly phosphorylated EphB4 peptide ([1]; ITC Kd, singly versus doubly phosphorylated EphB4 peptide)","n ([1]; ITC stoichiometry, mean ± SD of trials)","-T∆S [1, 4] [kcal/mol]","Ka [1, 4] [µM⁻¹]","∆G [1, 4] [kcal/mol]","ΔS ([1]; ITC, mean ± SD of trials)","-T∆S ([1]; trial 2, ITC) [kcal/mol]","Ka ([1]; trial 2, ITC) [µM⁻¹]","∆G ([1]; trial 2, ITC) [kcal/mol]","∆H ([1]; trial 2, ITC) [kcal/mol]","∆S ([1]; trial 2, ITC) [J/mol*K]","-T∆S ([1]; trial 3, ITC) [kcal/mol]","∆G ([1]; trial 3, ITC) [kcal/mol]","∆H ([1]; trial 3, ITC) [kcal/mol]","∆S ([1]; trial 3, ITC) [J/mol*K]","Kd ([1]; trial 3, ITC, read-out: Ka) [nM]","solubility on reconstitution, in words [2]","Kd ([1]; ITC, 20 mM Tris pH 8, 250 mM NaCl, independent model, mean ± SD of trials (n = 4 pYpY EphB4, n = 3 pY590, pY596), read-out: Kd) [nM]",Kd [3] [nM]
CC[C@H](C)[C@H](NC(=O)[C@H](Cc1ccc(OP(=O)(O)O)cc1)NC(=O)[C@@H](NC(=O)[C@H](CCCCN)NC(=O)[C@@H](NC(=O)CNC(C)=O)[C@@H](C)O)C(C)C)C(=O)N[C@@H](CC(=O)O)C(=O)N1CCC[C@H]1C(=O)N[C@@H](Cc1ccccc1)C(=O)N[C@H](C(N)=O)[C@@H](C)O [pY590 EphB4] (Ac-GTKV[pY]IDPFT-NH2),about 10 fold,0.8 ± 0.1,-2.87,0.07,-6.69,40 J/mol∗K and 40 ± 18 J/mol∗K,-2.82,0.07,-6.6,-3.78,40.0,-4.16,-6.84,-2.68,58.3,100,less soluble,,
CC[C@H](C)[C@H](NC(=O)[C@H](Cc1ccc(OP(=O)(O)O)cc1)NC(=O)[C@@H](NC(=O)[C@H](CCCCN)NC(=O)[C@@H](NC(=O)CNC(C)=O)[C@@H](C)O)C(C)C)C(=O)N[C@@H](CC(=O)O)C(=O)N1CCC[C@H]1C(=O)N[C@@H](Cc1ccccc1)C(=O)N[C@H](C(=O)N[C@@H](Cc1ccc(OP(=O)(O)O)cc1)C(=O)N[C@@H](CCC(=O)O)C(=O)N[C@@H](CC(=O)O)C(=O)N1CCC[C@H]1C(=O)N[C@@H](CC(N)=O)C(=O)N[C@@H](CCC(=O)O)C(=O)N[C@@H](C)C(N)=O)[C@@H](C)O [pYpY EphB4] (Ac-GTKV[pY]IDPFT[pY]EDPNEA-NH2),,,,,,,,,,,,,,,,,less soluble,1000 ± 300,
p120RasGAP SH2-SH3-SH2 (from UniProt P20936),,,,,,,,,,,,,,,,,,,10
